{"source": "paper PMC12077799", "about": "“Fragment-based drug discovery for transthyretin kinetic stabilisers using a novel capillary zone electrophoresis method” (PLOS One, 2025)", "key": {"[1]": {"molecular_target": "T1, Human transthyretin (TTR) thyroxine binding sites (Homo sapiens, UniProt P02766)", "T1 construct": "purchased SCIPAC (Sittingbourne, Kent, UK) P171-1", "assay": "TTR CZE Free Probe Peak Height Restoration (FPPHR) assay, 8-ANS displacement", "experimental": "CZE assays development and fragment screening were performed on a Beckman P/ACE MDQ capillary electrophoresis system (Beckman Coulter Inc., Brea, CA) operated by 32 Karat™ software. All capillaries (Polymicro Technologies, Phoenix, AZ) used were internally coated with polyvinyl alcohol and of around 30 cm in length, 75 microns in internal diameter. Capillary temperature was maintained at 20 °C by recirculating fluorinated fluid coolant during electrophoresis. Sample trays and buffer trays temperature were maintained at 4°C and ambient respectively. For every electrophoretic run, the capillary was pressure rinsed and prefilled with electrophoresis buffer also known as background electrolyte (termed as Running Buffer hereafter) before injection. After each electrophoretic run, the capillary was rinsed with Running Buffer and H2O by pressure (20 psi for 1 minute). Three Running Buffers (RB), A: 20 mM Tris pH 7.5, 1 mM KCl, 1.62 mM NaCl; B: 20 mM HEPES pH 7.0, 2 mM CaCl2 and C: 20 mM HEPES pH 7.0, 2 mM CaCl2, 1% DMSO were used. All CE traces were analysed by 32Karat™ Software with a built-in automatic peak integration algorithm.\nControl 1 Inject Buffer (IB) containing 30 μM 8-ANS was prepared by mixing 1 μL of 3 mM 8-ANS DMSO stock with 99 μL of Running Buffer B in a 0.2 mL PCR tube. Control 2 Inject Buffer was prepared by mixing 1μL of 3 mM 8-ANS DMSO stock with 20 μL of 100 μM tetrameric TTR stock in Running Buffer B and 79 μL of Running Buffer B. The final concentrations (f/c) were 8-ANS 30 μM, TTR 20 μM and 1% DMSO v/v.\nThe maximum Free Probe Peak Height (Control 1 Peak Height) was determined by Outlet Injection (see Fig 1) of Control 1 with an injection pressure of 0.5 psi for 5 seconds (equivalent to ≈ 20–30 nL). An identical injection of Control 2 provides the minimum Free Probe Peak Height (Control 2 Peak Height) enabling calculation of % of bound and unbound, i.e., free 8-ANS. To determine the 8-ANS peak height in Control 1 and Control 2, the capillary was prefilled with Buffer C and electrophoresis carried out at 10 kV (Normal Polarity, Fig 1) with UV monitoring at 230 nm. For displacement analysis, ligand DMSO stock was diluted in Buffer B and used to fill the capillary as the Running Buffer. Electrophoresis commenced after injection of Control 2, thus the injected 8-ANS-TTR complex migrates inside a capillary filled with the test ligand. The observed 8-ANS peak height is defined as Sample Peak Height and the displaced 8-ANS can be calculated as:\n\\% of Free Probe Peak Height Restoration= Sample Peak Height−Control 2 Peak Height/Control 1 Peak Height−Control 2 Peak Height"}, "[2]": {"molecular_target": "T2, Human transthyretin (TTR) (Homo sapiens, UniProt P02766)", "T2 construct": "purchased SCIPAC (Sittingbourne, Kent, UK) P171-1", "assay": "Co-crystallisation of TTR-ligand complex, X-ray hit confirmation", "type": "binding", "settings": "fragment seen in ligand-omitted difference density at >= 2σ in one or both binding sites; full or partial density", "experimental": "Crystals were grown by vapor diffusion using a published crystallisation cocktail (100 mM HEPES pH 7.5, 200 mM CaCl2, 28% v/v PEG400) at 21 °C [29]. The hanging drop contained 1 μL of crystallisation cocktail, 1 μL of diluted ligand and 1 μL of TTR protein solution (85 μM). […] Crystals were harvested and flash cooled in a N2 cryostream or dipped into liquid ethane without cryoprotectant. Data was collected at Diamond Light Source (Oxon, UK) beamline I24, I04 or I04-1 (Pilatus 6M or ADSC Q315) or the European Synchrotron Radiation Facility (ESRF, Grenoble, France) beamline ID29 (Pilatus 6M-F) or in-house (Bruker X8 Diffractometer with APEXII CCD detector). Crystal unit cell was initially indexed by software MOSFLM [30] and LABELIT [31] within the EDNA [32] automatic data processing workflow. Diffraction image integration was performed by XDS [33] and reflection intensities were scaled by SCALA [34] or by PROTEUM2 if collected in-house. Phases were obtained by molecular replacement method using PHASER [35], 1DVQ from the Protein Data Bank (PDB) was used as the search model. Atomic positions of the initial model were refined by REFMAC5 [36]. Model building and ligand fitting was completed using COOT [37]. Model graphics were generated using CCP4MG [38]. Crystallographic statistics of all structures can be found in S4 Table."}, "[3]": {"molecular_target": "T3, TTR (Homo sapiens, UniProt P02766)", "T3 construct": "purchased SCIPAC (Sittingbourne, Kent, UK) P171-1", "assay": "Isothermal titration calorimetry (ITC)", "type": "binding", "experimental": "All ITC experiments were conducted on an iTC200 calorimeter (GE Healthcare), and the settings were 25 °C, stir at 1000 RPM, 1–2 μL injection spaced with 100–150 seconds, reference power: 6 μcal/sec. Isotherms were fitted using ORIGIN 7 software (OriginLab, MA, USA). To prepare TTR ITC protein solution (5 mL), purified and freeze-dried human TTR was weighted and dissolved in 310 μL of pure water. The reconstituted protein solution was then desalted by spin column (Bio-Rad, Bio-Gel P6) and the eluted volume was transferred to a 15mL falcon tube. The protein solution was further diluted with 10x Phosphate Buffered Saline (PBS, 500 μL), DMSO (150 μL) and water, (f/c: 4.3 mM Na2HPO4, 137 mM NaCl, 2.7 mM KCl, 1.47 mM KH2PO4, 3% DMSO v/v, TTR 19.35–25 μM, pH 7.8). UV A260/280 was measured to obtain the actual protein concentration using a calculated extinction coefficient of 18450 M^-1 cm^-1. To prepare ligand ITC solution (1 mL), 30 μL of ligand stock in DMSO was diluted with 10x PBS (100 μL) and water (f/c: 4.3 mM Na2HPO4, 137 mM NaCl, 2.7 mM KCl, 1.47 mM KH2PO4, 3% DMSO v/v, Ligand 280–600 μM, pH 7.8)."}, "[4]": {"settings": "N = number of non-hydrogen atoms"}}, "note": "Like-named read-outs stand apart in the source and are kept apart here."}
{"compound": "c1ccc2c(-c3cn[nH]c3)ccnc2c1", "note": "[SFL001535, 4-(3H-pyrazol-4-yl)quinoline]", "values": [{"measurement": "FPPHR % tested at 10 µM", "setting": "[1]; compound 10 µM in Running Buffer, 10% minimum for a binder", "result": 34.10, "unit": "% tested at 10 µM"}, {"measurement": "FPPHR % at 100 μM", "setting": "[1]; compound 100 μM in Running Buffer, 10% minimum for a binder", "result": 64.23, "unit": "%"}, {"measurement": "inhibition at 50 µM", "setting": "[1]; read-out: FPPHR % at 50 μM", "result": 60.5, "unit": "%"}, {"measurement": "Confirmed by X-ray", "setting": "[2]", "result": "Yes 9H7I"}, {"measurement": "Kd", "setting": "[3]; 25 °C, PBS pH 7.8, 3% DMSO, read-out: ITC Kd1 ± SD (N = 3)", "result": 260, "unit": "nM"}, {"measurement": "Kd", "setting": "[3]; 25 °C, PBS pH 7.8, 3% DMSO, read-out: ITC Kd2 ± SD (N = 3)", "result": 1960, "unit": "nM"}, {"measurement": "Kd", "setting": "[3]; Fig 8 isotherm, ± standard error of curve fitting, read-out: ITC Kd1 of shown isotherm", "result": "260 ± 88.2", "unit": "nM"}, {"measurement": "Kd1 LE (Ligand Efficiency, ΔG/N)", "setting": "[3]; [4]", "result": 0.60, "unit": "kcal/mol"}, {"measurement": "Kd2 LE (Ligand Efficiency, ΔG/N)", "setting": "[3]; [4]", "result": 0.52, "unit": "kcal/mol"}]}
